pIC50: −log10 of the molar value. ≈ marks a conversion by molar mass, not a printed value. Read-outs that look alike come from different tables or passages of the source.

Holding throughout (format): cell-based
For one data set, the system named is CEM. The experiment in a line: Cell culture inhibitory dose (CCID50) in CEM. The following applies: cell counting, trypan blue exclusion, 7 days post drug treatment. How it is done:
Evaluation of Cell Culture Inhibitory Dose (CCID50)
Cell growth was determined by cell counting and viability by trypan blue exclusion 7 days post drug treatment. CCID50 is expressed as the drug concentration which inhibits 50% of cell growth.

The test system of data set [1] is HIV-1 HXB2D-65 K→R (ddC resistance mutation). The experiment in a line: IC50 in CBMCs with constructed mutated virus HXB2D-65. The settings on record: Human immunodeficiency virus 1, read-out: IC50 HXB2D-65 K→R. As to the method: (§1) In short, viruses (HTLV-IIIB) that had initially been grown on MT-4 cells were passaged onto phytohemaglutinin-prestimulated cord blood mononuclear cells (CBM). For subsequent analysis, samples of CBM (5×10^5 cells per mL) were pretreated with various concentrations of the different compounds for 4 h and were then inoculated with CBL-grown HIV-1 at a multiplicity of infection of 1.0 in the concentration of the compound used for the pretreatment. Fresh medium, including the appropriate concentration of the compound was added three times weekly, and fresh phytohemaglutinin-prestimulated CBM (5×10^5 cells per mL) were added at 2-day intervals. The calculation of IC50 was determined on the basis of RT levels in culture fluids as described in Gao et al., (1992), J. Virol. 66: 12-19.
(§2) Determination of IC50 (μM) in Different Mutated Isolates of HIV-1 in the Presence of Different Antiviral Compounds
(§3) The procedure is similar to the procedure used in the CBM assay, with the exception that constructed virus and construted mutated virus were used.
(§4) The constructed virus HXB2D-65 correspond to the ddC resistance mutation and the constructed virus HXB2D-184 correspond to the 3TC™ and FTC resistance mutation.

In data set [2] the test system is HIV-1 HXB2D-184 M→V (3TC™ and FTC resistance mutation). The experiment in a line: IC50 in CBMCs with constructed mutated virus HXB2D-184. The following applies: Human immunodeficiency virus 1, read-out: IC50 HXB2D-184 M→V. How it is done: as §1, §2, §3, §4
A further data set has as its system HIV-1 (strain RF). The experiment in a line: Inhibition of syncytium formation in C8166 cells. As to the method:
Inhibition of Syncytium Formation
C8166 cells were infected with HIV-1 (strain RF) at a moil of 1×10^−3 infectious units/cell and adsorbed at room temperature for 60 minutes. After adsorption, the cells were washed three times in growth medium. Aliquots of 10^5 cells were added to each well of 24-well plates containing serial dilution of test compounds at final concentrations of 50 μg/ml to 0.05 μg/ml in RPMI® 1640 growth medium. Untreated infected cells and untreated uninfected cells were also included as controls. The plates were incubated at 37° C./5% CO2 for 3-4 days in humidified containers. The cells were examined daily for evidence of HIV-1 induced syncytium formation. The syncytia were quantified by reference to the untreated infected controls, and the dose of compound required to reduce the cytopathic effect by 50% (ID50) was calculated.

The subject of another data set is HIV-1 IIIB. The experiment in a line: IC50 in CBMCs with HIV-1 isolate IIIB. The settings on record: Human immunodeficiency virus 1. How it is done:
as §1, §2, §3

Data set [3] relates to 2.2.15 cells (Hep G2 cells transfected with human hepatitis B virus genomic DNA). The experiment in a line: Cytotoxicity (CD50) reported with HBV assay. The following applies: HBV table. As to the method:
(§5) The method used for this test is described in detail in Korba et al., Antiviral research 15, 217-228 (1992) which is shortly described as follows: Hep G2 cells transfected with human hepatitis B virus genomic DNA (2.2.15 cells) were grown and maintained in RPMI-1640 culture medium containing %5 foetal bovine serum, 2 mM glutamine and 50 μg/ml gentamicin sulphate, and checked routinely for G418 resistance. Cultures of 2.2.15 cells were grown to confluence in 24 well tissue culture plates and maintained for 2 to 3 days in that condition prior to drug treatment.

A further data set relates to human hepatitis B virus. The experiment in a line: Inhibition of human hepatitis B virus in 2.2.15 cells, extracellular HBV DNA. The following applies: 10 day treatment. As to the method: Inhibition of Human Hepatitis B Virus.
as §5
Drugs were dissolved in sterile water or sterile 50% DMSO in water at concentrations 100-fold higher than the higher test concentration. These solutions were diluted as needed in culture medium.
The culture medium on the confluent cells was changed 24 hours prior to exposure to test compounds. During the 10 day treatment, the culture medium was changed daily. After 10 days of the treatment, the culture medium was collected and frozen at −70° C. for HBV DNA analysis. […]
A purified 3.2 kb EcoR1 HBV DNA fragment was labeled with [^32p]dCTP by nick translation and used as a probe to detect HBV DNA on the dot-blot by DNA hybridization. After washing, the hybridized blot was dried and ^32p was quantified using an Ambis beta scanner.

The mark [4] stands for this setting: Human immunodeficiency virus 1, C8166 cells, HIV-1 strain RF, syncytium formation, 3-4 days, read-out: IC50 (dose reducing the cytopathic effect by 50%, ID50).

In the case of `Nc1nc(=O)n([C@@H]2CO[C@H](CO)S2)cc1F` [compound 4, 2S-hydroxymethyl-4S-(5′-fluorocytosin-1′-yl)-1,3-oxathiolane], the “CCID50 CEM” value in the data set on CEM was greater than 500 µM. Moreover, the negative-log IC50 (pIC50) in data set [1] is 5.19; in data set [2] it was 5.70; in the data set with HIV-1 IIIB, 6.47. In addition, the half-inhibitory concentration (IC50) with HIV-1 (strain RF) (setting [4]) was 0.03 µg/mL (≈ 0.121 µM).
On the same counts, the results for `Nc1nc(=O)n([C@H]2CO[C@@H](CO)S2)cc1F` [compound 3, 2R-hydroxymethyl-4R-(5′-fluorocytosin-1′-yl)-1,3-oxathiolane] are greater than 500 µM, 4.94, 5.05, 6.08 and 0.17 µg/mL (≈ 0.688 µM).
Regarding `Nc1ccn([C@@H]2CO[C@H](CO)S2)c(=O)n1` [Compound #2, 2S-hydroxymethyl-4S-(cytosin-1′-yl)-1,3-oxathiolane], the “CCID50 CEM” value in the data set on CEM stood at 103 µM. Moreover, the pIC50 in data set [1] was 5.46; in data set [2] it was 5.52; with HIV-1 IIIB, 6.55. Also, the “CD50 (HBV)” value in data set [3] was greater than 10 µg/mL. For the same molecule, in the data set on HIV-1 (strain RF) (Human immunodeficiency virus 1, C8166, read-out: IC50 (dose reducing the cytopathic effect by 50%, ID50)), the IC50 was 0.08 µg/mL (≈ 0.349 µM). Besides, the “ID50 (HBV)” value in the data set with human hepatitis B virus was found to be 4 µg/mL (≈ 17.4 µM).

(Values after patent publication US6369066B1, “Substituted 1,3-oxathiolanes with antiviral properties” (BioChem Pharma, Inc., priority 1990, dated 2002).)
